In publication PMC12030165, “Bioactivity of Synthesized Trifluoromethyl Thioxanthone Analogues” (Pharmaceuticals, 2025):

Key:
COX-1 = biological target: T1, COX-1 (Homo sapiens, UniProt P23219); test: COX (human) Inhibitor Screening Assay, COX-1; assay type: biochemical
T1 construct: purchased Cayman Chemicals 701230
Protocol: (§1) Our synthesized compounds’ COX-1 and COX-2 inhibitory activities were evaluated using the COX (human) Inhibitor Screening Assay Kit supplied by Cayman Chemicals (catalog no. 701230, Ann Arbor, MI, USA). The preparation of reagents and testing procedures were conducted according to the manufacturer’s recommendations. Two concentrations of the inhibitors (10 µM and 50 µM) were dissolved in a minimal amount of dimethyl sulfoxide (DMSO) and incubated with a mixture of COX-1 or COX-2 enzyme and heme in a diluted reaction buffer for 10 min at 37 °C. The reaction was initiated by adding 10 µL of arachidonic acid, followed by a two-minute incubation at 37 °C. The reaction was halted by adding 30 µL of stannous chloride solution to each reaction tube and incubating for 5 min at room temperature. The resulting PGF2α, produced by the COX reactions, was quantified using an enzyme-linked immunosorbent assay (ELISA). The 96-well plate was covered with plastic film and incubated for 18 h at room temperature on an orbital shaker. After incubation, the plate was rinsed five times with a wash buffer. Then, Ellman’s reagent (200 µL) was added, and the plate was incubated for approximately 60–90 min at room temperature until the absorbance of the blank well was in the range of 0.3–0.8 at 405 nm. The plate was read using a Unilab Microplate Reader 6000. The inhibitory percentage was calculated for each concentration tested against the control. The IC50 values were derived from the concentration-inhibition response curve, and the selectivity index (SI) was calculated by dividing the IC50 for COX-2 by the IC50 for COX-1 [52].

[1] = DPPH antioxidant activity assay
Protocol: To evaluate four synthesized compounds and Trolox (as a positive control), a 1 mg/mL concentration in methanol was first made from phenyl alcohol. The prepared solution was produced in concentrations of 1, 2, 3, 5, 7, 10, 20, 30, 50, and 80 µg/mL. The DPPH reagent was then diluted in 0.002% w/v methanol and combined in a […] ratio with the previously produced working concentrations. A blank solution of 100% methanol was used. All solutions were incubated at room temperature for 30 min in a dark environment. Their absorbance values were then determined using a UV-visible spectrophotometer set at a wavelength of 517 nm. The antioxidant capacity of each chemical compound fraction and Trolox were calculated using the following formula:% inhibition = ((Abs blank − Abs Sample)/Abs Blank) × 100 where:
Abs blank: Absorbance value of the control reaction containing all reagents except the synthesized compound.
Abs sample: The absorbance value of the synthesized compound [48].

[2] = biological target: T2, porcine pancreatic lipase (Sus scrofa, UniProt P00591); test: Inhibition assay of pancreatic lipase enzyme (PNPB); assay type: biochemical
T2 construct: purchased Sigma-Aldrich (Missouri, MO, USA)
T2 sequence (P00591 1-450): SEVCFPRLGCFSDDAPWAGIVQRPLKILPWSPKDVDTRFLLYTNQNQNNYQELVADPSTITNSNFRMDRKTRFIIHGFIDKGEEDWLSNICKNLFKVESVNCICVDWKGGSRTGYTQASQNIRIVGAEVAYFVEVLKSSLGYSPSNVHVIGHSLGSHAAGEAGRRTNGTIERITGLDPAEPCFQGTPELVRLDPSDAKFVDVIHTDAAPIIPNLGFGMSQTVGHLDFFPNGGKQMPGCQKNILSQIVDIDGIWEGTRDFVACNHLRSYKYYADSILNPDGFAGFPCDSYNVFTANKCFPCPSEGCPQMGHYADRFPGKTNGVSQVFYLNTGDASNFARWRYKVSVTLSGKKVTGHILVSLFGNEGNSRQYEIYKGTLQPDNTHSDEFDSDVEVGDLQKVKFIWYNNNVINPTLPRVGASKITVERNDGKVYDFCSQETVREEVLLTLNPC
Protocol: A stock solution of 1 mg/mL (1000 μg/mL) was prepared for each product using 10% DMSO. This stock solution created […] different concentrations at 20, 50, and 70 μg/mL. A fresh stock solution of pancreatic lipase enzyme was prepared immediately before use. […] In the experiment, 0.1 mL of the 1 mg/mL porcine pancreatic lipase solution was added to test tubes containing 0.2 mL of each of the various concentrations of the products. The mixtures were then brought to a final volume of 1 mL by adding a Tris-HCl solution (pH 7.4) and were incubated at 25 °C for 15 min. After the incubation period, 0.1 mL of the PNPB solution was added to each test tube, and the mixtures were incubated again for 30 min at 37 °C. The activity of pancreatic lipase was measured by assessing the hydrolysis of p-nitrophenyl butyrate to p-nitrophenol at a wavelength of 410 nm using a UV-visible spectrophotometer.

COX-2 = biological target: T3, COX-2 (Homo sapiens, UniProt P35354); test: COX (human) Inhibitor Screening Assay, COX-2; assay type: biochemical; conditions: for COX-2 Selectivity: ratio of COX-1 and COX-2 IC50
T3 construct: purchased Cayman Chemicals 701230
T3 sequence (P35354 18-604): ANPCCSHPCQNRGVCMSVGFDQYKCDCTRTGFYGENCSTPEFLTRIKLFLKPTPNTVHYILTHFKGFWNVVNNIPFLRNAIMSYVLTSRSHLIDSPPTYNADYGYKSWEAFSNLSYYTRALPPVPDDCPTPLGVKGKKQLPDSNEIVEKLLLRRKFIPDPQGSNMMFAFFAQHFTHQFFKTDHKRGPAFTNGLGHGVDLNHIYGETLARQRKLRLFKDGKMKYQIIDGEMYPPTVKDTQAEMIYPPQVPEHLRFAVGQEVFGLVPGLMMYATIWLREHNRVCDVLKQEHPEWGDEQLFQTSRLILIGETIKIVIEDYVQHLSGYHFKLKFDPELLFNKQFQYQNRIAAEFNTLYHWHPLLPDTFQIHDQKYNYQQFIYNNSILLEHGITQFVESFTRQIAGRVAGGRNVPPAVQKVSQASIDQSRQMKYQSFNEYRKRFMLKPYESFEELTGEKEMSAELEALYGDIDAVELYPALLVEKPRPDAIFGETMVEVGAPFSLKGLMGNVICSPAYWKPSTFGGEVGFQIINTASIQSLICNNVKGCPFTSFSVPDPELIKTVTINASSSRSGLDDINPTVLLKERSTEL
Protocol: as §1

T1 sequence (P23219 24-599): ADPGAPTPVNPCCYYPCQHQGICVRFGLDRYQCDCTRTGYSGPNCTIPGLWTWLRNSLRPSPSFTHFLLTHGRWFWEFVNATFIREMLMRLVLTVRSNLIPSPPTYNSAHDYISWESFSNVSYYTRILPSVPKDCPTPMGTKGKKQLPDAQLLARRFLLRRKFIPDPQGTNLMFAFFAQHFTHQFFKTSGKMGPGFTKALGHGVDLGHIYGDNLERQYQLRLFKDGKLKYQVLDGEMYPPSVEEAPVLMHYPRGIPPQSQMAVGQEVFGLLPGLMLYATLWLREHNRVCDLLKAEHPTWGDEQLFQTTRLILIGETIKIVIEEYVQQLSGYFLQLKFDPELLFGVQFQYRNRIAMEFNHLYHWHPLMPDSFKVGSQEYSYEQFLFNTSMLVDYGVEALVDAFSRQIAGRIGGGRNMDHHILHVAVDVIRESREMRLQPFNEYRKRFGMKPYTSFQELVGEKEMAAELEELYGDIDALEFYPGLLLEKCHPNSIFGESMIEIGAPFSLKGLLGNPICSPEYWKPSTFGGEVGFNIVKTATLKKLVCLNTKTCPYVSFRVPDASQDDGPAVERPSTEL

| Compound | IC50 (COX-1) | % inhibition of DPPH radical (radical scavenging) ([1]; 1 µg/mL) | % inhibition of DPPH radical (radical scavenging) ([1]; 2 µg/mL) | % inhibition of DPPH radical (radical scavenging) ([1]; 3 µg/mL) | % inhibition of DPPH radical (radical scavenging) ([1]; 5 µg/mL) | % inhibition of DPPH radical (radical scavenging) ([1]; 7 µg/mL) | % inhibition of DPPH radical (radical scavenging) ([1]; 10 µg/mL) | % inhibition of DPPH radical (radical scavenging) ([1]; 20 µg/mL) | % inhibition of DPPH radical (radical scavenging) ([1]; 30 µg/mL) | % inhibition of DPPH radical (radical scavenging) ([1]; 50 µg/mL) | % inhibition of DPPH radical (radical scavenging) ([1]; 80 µg/mL) | IC50 [2] | IC50 (COX-2) | COX-2 Selectivity (COX-2) |
| --- | --- | --- | --- | --- | --- | --- | --- | --- | --- | --- | --- | --- | --- | --- |
| S-(9-benzyl-2-(trifluoromethyl)-9H-thioxanthen-9-yl)-L-cysteine [Compound 3] | 32.5 ± 0.53 nM | 31.3 ± 2.3% | 36.4 ± 3.5% | 39.9 ± 3.6% | 39.9 ± 4.1% | 40.1 ± 3.8% | 40.2 ± 5.1% | 40.4 ± 5.2% | 41.9 ± 4.9% | 42.9 ± 3.2% | 46.6 ± 2.4% | 277000 nM | 25.9 ± 0.45 nM | 1.3 |
| OC1(Cc2ccccc2)c2ccccc2Sc2ccc(C(F)(F)F)cc21 (stereo not drawn) [Compound 2, 9-benzyl-2-(trifluoromethyl)-9H-thioxanthen-9-ol] | 14 ± 0.64 nM | 36.3 ± 2.4% | 37.3 ± 3.9% | 39.3 ± 4.2% | 39.5 ± 3.4% | 39.7 ± 3.6% | 40.1 ± 4.9% | 40.7 ± 2.5% | 40.7 ± 3.8% | 41.6 ± 5.1% | 42.2 ± 3.9% | 111000 ± 7500 nM | 74.1 ± 0.48 nM | 0.2 |
| OC1(c2ccccc2)c2ccccc2Sc2ccc(C(F)(F)F)cc21 (stereo not drawn) [Compound 1, 9-phenyl-2-(trifluoromethyl)-9H-thioxanthen-9-ol] | 40.2 ± 0.41 nM | 7.1 ± 1.2% | 7.6 ± 2.3% | 8.2 ± 1.5% | 8.6 ± 3.1% | 8.9 ± 2.3% | 9.3 ± 1.6% | 9.9 ± 2.5% | 12.6 ± 3.2% | 12.9 ± 2.6% | 16.3 ± 4.3% | 176000 nM | 27.1 ± 0.6 nM | 1.5 |
